Results taken from patent publication US5969017A, “Methods of treating or preventing cardiac arrhythmia” (Merck & Co., Inc., priority 1997, dated 1999).

Key:
Type in all cases: cell-based
IKs = target: T1, IKs (Cavia porcellus, UniProt O70344); assay: Voltage clamp block of IKs in guinea pig ventricular myocytes; details: guinea pig ventricle
T1 construct: Guinea pig ventricular myocytes were isolated; endogenous in cells; host or cells: isolated guinea pig ventricular myocytes
Procedure: (§1) D. Measurement of IKs IKr and IK1 in Guinea Pig Ventricular Myocytes.
(§2) Guinea pig ventricular myocytes were isolated using a modification of the procedure described by Mitra et al., Am. J. Physiol. 249:H1056-60 (1985). Excised hearts were perfused through the aorta (retrograde fashion) at a rate of 10 ml/min with oxygenated, warmed (37° C.) solutions described below. The heart was initially perfused for 7 minutes with a Tyrode's solution containing, in mM: 132 NaCl, 4 KCl, 1.2 MgCl2, 10 HEPES, 5 glucose, pH=7.2. The heart was then perfused with the same nominally Ca^2+ -free solution containing 150 units/ml Type II collagenase (Worthington) and 0.5 units/ml Type XIV protease (Sigma) for 8 minutes. This perfusate was followed by a Tyrode's solution contianing 0.2 mM CaCl2 (without enzymes) for 5 minutes. […]
(§3) The suction microelectrode technique described by Giles, W. R. and Shibata, E. F., "Voltage clamp of bull-frog cardiac pacemaker cells: a quantitative analysis of potassium currents", J. Physiol. […]
(§4) To record K^+ currents, the cells were bathed in a Ca^2+ -free Tyrode's solution containing 0.4 mM nisoldipine. […] Data was analyzed as % block from control membrane currents.
(§5) Nisoldipine was prepared as a 4 mM stock solution in polyethylne glycol 200. […] At the final concentrations used, neither polyethylene glycol 200 nor dimethyl sulfoxide had any effect on any of the measured membrane currents. […]

IKr = target: T2, IKr (Cavia porcellus, UniProt O08703); assay: Voltage clamp block of IKr in guinea pig ventricular myocytes; details: guinea pig ventricle
T2 construct: Guinea pig ventricular myocytes were isolated; endogenous in cells; host or cells: isolated guinea pig ventricular myocytes
T2 sequence (O08703 1-1294): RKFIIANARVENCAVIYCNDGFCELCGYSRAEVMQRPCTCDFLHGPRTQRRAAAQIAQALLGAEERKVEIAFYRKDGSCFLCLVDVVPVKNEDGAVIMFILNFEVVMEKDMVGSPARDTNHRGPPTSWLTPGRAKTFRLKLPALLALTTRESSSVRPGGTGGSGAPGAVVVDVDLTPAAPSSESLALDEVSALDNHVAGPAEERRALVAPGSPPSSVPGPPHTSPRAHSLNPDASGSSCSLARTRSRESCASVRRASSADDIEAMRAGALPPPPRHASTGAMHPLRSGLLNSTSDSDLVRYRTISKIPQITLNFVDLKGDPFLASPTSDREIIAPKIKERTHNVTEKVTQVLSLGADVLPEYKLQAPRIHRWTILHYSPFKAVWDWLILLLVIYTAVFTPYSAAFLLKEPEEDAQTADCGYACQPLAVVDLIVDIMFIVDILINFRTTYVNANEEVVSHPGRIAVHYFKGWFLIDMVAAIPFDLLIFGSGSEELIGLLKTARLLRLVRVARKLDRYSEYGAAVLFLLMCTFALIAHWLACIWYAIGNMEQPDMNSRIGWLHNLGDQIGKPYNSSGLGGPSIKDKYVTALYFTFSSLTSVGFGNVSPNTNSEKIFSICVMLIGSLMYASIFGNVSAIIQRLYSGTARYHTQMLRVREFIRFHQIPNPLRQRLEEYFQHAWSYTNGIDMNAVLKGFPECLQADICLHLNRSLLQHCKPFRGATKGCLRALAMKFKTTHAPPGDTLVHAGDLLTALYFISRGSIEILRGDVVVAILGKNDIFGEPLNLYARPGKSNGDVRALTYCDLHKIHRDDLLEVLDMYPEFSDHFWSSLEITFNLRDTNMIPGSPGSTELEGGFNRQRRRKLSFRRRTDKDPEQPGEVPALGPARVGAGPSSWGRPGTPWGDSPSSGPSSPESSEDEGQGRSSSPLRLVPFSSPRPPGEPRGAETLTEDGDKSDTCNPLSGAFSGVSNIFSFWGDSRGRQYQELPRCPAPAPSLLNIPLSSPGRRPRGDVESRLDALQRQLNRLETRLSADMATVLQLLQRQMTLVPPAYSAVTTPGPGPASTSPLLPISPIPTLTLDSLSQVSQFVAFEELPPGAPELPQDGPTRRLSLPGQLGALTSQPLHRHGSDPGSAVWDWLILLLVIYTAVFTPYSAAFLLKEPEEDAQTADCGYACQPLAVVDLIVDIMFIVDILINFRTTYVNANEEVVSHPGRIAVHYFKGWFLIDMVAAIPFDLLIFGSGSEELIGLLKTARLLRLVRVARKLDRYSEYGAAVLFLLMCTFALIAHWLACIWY
Procedure: as §1, §2, §3, §4, §5

IK1 = assay: Voltage clamp block of IK1 in guinea pig ventricular myocytes; details: 3 μM; guinea pig ventricle
Procedure: as §1, §2, §3, §4, §5

T1 sequence (O70344 whole entry): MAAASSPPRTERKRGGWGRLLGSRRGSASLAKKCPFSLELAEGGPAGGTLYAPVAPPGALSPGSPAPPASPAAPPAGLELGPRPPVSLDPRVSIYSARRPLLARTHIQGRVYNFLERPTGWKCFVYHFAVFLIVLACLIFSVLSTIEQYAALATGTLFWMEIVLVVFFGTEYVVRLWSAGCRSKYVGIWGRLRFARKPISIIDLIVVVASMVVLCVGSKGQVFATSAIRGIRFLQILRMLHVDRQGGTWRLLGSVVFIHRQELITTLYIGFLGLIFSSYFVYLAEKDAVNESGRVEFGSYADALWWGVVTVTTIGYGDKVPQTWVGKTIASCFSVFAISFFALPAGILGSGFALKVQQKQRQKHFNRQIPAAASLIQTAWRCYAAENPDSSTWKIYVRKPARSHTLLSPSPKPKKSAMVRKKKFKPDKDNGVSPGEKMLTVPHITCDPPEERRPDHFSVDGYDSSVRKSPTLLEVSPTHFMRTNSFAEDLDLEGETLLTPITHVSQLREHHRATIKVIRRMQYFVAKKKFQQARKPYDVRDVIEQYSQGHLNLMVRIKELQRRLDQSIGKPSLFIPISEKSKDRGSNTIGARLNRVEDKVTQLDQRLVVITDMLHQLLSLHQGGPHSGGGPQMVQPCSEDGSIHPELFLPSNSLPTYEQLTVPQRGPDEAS
T1 sequence (Q60409 whole entry partner): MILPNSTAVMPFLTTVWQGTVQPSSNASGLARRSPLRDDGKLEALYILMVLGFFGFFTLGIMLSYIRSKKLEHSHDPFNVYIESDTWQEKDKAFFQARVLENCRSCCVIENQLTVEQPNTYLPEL

## COc1ccc(-n2nc(Sc3ccc(Cl)cc3)c(C)c(C#N)c2=O)cc1 [C, 6-(4-Chlorophenylthio)-2-(4-methoxyphenyl)-5-methyl-3-oxo-2,3-dihydropyridazine-4-carbonitrile]
IKs
  inhibition at 3 µM: 0%
IKr
  inhibition at 3 µM: 8.4%
IK1
  % Block IK1: 0%
